Activity calls are given as the source filed them.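 How the source made its calls: active means fitted EC50 above 0 with maximum enhancement above 35%; inactive means the rest.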

Sequence of E3 ubiquitin-protein ligase Mdm2 (Homo sapiens) (Q00987 whole entry, looked up): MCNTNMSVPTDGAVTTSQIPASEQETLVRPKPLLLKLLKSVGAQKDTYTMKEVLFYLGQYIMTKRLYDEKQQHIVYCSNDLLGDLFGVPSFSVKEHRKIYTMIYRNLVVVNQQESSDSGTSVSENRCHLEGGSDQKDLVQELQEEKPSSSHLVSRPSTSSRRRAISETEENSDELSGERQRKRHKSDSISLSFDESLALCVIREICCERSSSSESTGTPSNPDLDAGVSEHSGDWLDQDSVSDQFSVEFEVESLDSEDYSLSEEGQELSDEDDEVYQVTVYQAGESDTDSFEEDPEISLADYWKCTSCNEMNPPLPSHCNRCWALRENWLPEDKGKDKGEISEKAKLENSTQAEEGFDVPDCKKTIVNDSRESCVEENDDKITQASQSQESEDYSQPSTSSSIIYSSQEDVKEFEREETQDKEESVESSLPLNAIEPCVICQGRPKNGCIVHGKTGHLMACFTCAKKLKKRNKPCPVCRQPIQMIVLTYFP

One assay addresses E3 ubiquitin-protein ligase Mdm2 (Homo sapiens) (UniProt Q00987). Briefly: 384-well cell-based luminescence, MDM2-luciferase reporter signal enhancement, concentration series, MDM2 ligase inhibitor project (AID 1394). The following applies: cells, MDM2-luciferase autoubiquitination reporter, 2 h. (In general: A reporter such as luciferase makes a cellular process visible.)
In the case of `O=C1CC(c2cccc(Cl)c2)CC(O)=C1C=NC1CCCC1` (centres undefined), the EC50 entry is “inactive”.

The assay is the same for the next values; noted with them: cells, MDM2-luciferase autoubiquitination reporter, 2 h.
Consider `CCCCC(=O)/C=C/n1c(=S)oc2ccccc21`, for which the maximum enhancement entry was “inactive”.
For `COC(Cn1cc(C)c(=O)[nH]c1=O)OC`, the maximum enhancement entry was “inactive”.
`CC1=NN(c2ccc(C)cc2)C(=O)/C1=C\C=C\c1ccccc1`: the maximum enhancement entry was “inactive”.
With `O=C(COc1ccccc1)Nc1ncccn1`, the maximum enhancement result was “inactive”.
On the same count and under the same terms, the value for `C/C(=N\NC(N)=S)c1cccnc1` was “inactive”; that for `N#Cc1nc(Cc2ccccc2)oc1NCCN1CCOCC1` was “inactive”.
On the same count and under the same terms, the value for `O=C(O)CCc1ccc(-c2ccc(Br)cc2)n1CC(=O)O` was “inactive”; that for `Cc1ccc(Nc2nnc(SCC3CCCCO3)s2)cc1` (centres undefined) was “inactive”; that for `CCN(CC)Cc1cc(C(=O)O)c(C)o1` was “inactive”.
Consider `Cc1[nH]c2ccc(Cl)cc2c(=O)c1CN1CCCC1`, for which the maximum enhancement entry was “inactive”.
`Fc1cccc(Cl)c1/C=N/n1c(-c2cccnc2)n[nH]c1=S`: the maximum enhancement entry is “inactive”.
As to `O=C(CNCc1ccc(Cl)cc1)Nc1cccc(C(=O)O)c1`, the maximum enhancement entry is “inactive”.
Still for that read-out and setting: next, `Cc1cc(C)cc(OCC(=O)NNC(=O)CCN2C(=O)c3ccccc3C2=O)c1`: “inactive”.
With `Cc1ccc(/C=C2/NC(=O)N(Cc3ccc(Br)cc3)C2=O)o1`, the maximum enhancement entry is “inactive”.
Regarding `COc1ccc(N2C(=S)N=C(Nc3ccccc3)C23CCCCC3)cc1`, the maximum enhancement entry was “inactive”.
Regarding `C=C1CCN(C(C(=O)OC)C(C)C)S(=O)(=O)c2ccccc21` (centres undefined), the maximum enhancement entry was “inactive”.
With `CCN(C(=O)CSc1nc2ccccc2c(=O)n1-c1cccc(C)c1)C1CCS(=O)(=O)C1` (centres undefined), the maximum enhancement result was “inactive”.
`CCn1cc(C(=O)NCc2ccccc2OC)c(=O)c2cc(S(=O)(=O)N(C)C)ccc21`: the maximum enhancement entry is “inactive”.
As to `Cn1c(=O)cc(OCC(=O)NCc2cccs2)c2ccccc21`, the maximum enhancement entry was “inactive”.
With `COc1ccc(OC(C)C(=O)Nc2ccccc2C(F)(F)F)cc1` (centres undefined), the maximum enhancement entry was “inactive”.
As for `Cn1c(=NC(=O)c2ccc3c(c2)OCCO3)sc2cc(S(C)(=O)=O)ccc21`, the maximum enhancement result was “inactive”.
For `N=C1C(c2nc3ccccc3[nH]2)=C(O)CN1c1ccccc1`, the maximum enhancement entry is “inactive”.
On the same count and under the same terms, next, `COc1cc(/C=C2/C(=N)N3OC(C)=CC3=NC2=O)ccc1OC(=O)c1ccco1`: “inactive”; `CCc1cc2c(=O)c(-c3nc4ccccc4n3C)c(CCCC(=O)O)oc2cc1OC(=O)C(C)(C)C`: “inactive”; `Cc1cc(=O)n2[nH]c(N3C(=O)CCC3=O)nc2n1`: “inactive”.
The same measure, in the same setting: the value for `CC(=O)Cc1nsc(Nc2ccc(C)cc2)n1` was “inactive”; that for `COc1ccc(NC(=O)/C(C#N)=C\c2ccc(OCc3ccc(C(=O)O)cc3)c(OC)c2)cc1` was “inactive”.
On the same count and under the same terms, the value for `COc1ccccc1-c1nnc(Nc2nc3c(OC)cccc3s2)o1` was “inactive”.
Regarding `O=C(CN1CCCCC1)NC(=O)NCc1ccccc1`, the maximum enhancement result was “inactive”.
Take `Cc1ccc(N2C(=O)NC(=O)/C(=C\C=C\c3ccco3)C2=O)cc1C`: the maximum enhancement result was “inactive”.
As to `O=C(c1cn(-c2ccccc2)nc1-c1cccs1)N1CCOCC1`, the maximum enhancement entry is “inactive”.
As for `CCCCS(=O)(=O)/C=C\C=C/S(=O)(=O)CCCC`, the maximum enhancement entry is “inactive”.
For the molecule `O=S1(=O)C=C(Sc2nc3ccccc3s2)c2ccccc21`, the maximum enhancement result was “inactive”.

The values above are taken from PubChem BioAssay AID1394 (PCMD, 2008).
